In patent publication US20230339886A1 (University of Florida Research Foundation, Incorporated, priority 2020, published 2023):
Like-named read-outs stand apart in the source and are kept apart here.

Molecular target: T1, REV-ERBα LBD (human; residues 281-614 Δ324-422) (Homo sapiens, UniProt P20393, DEL324-422)
T1 construct: 6×Histag-REV-ERBα LBD (human; residues 281-614 Δ324-422); made in house; host or cells: Escherichia coli
Assay: TR-FRET corepressor interaction assay (REV-ERBα LBD, FITC-SMRT peptide)
Type: biochemical
In short: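 Compound serial dilutions (in DMSO, triplicate) incubated 2 h at 4 °C; Tb donor excited at 340 nm, emission read at 495 nm and FITC acceptor at 520 nm. TR-FRET ratio (520/495 nm) plotted against ligand concentration and fitted to a sigmoidal dose-response curve.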

[1] = Table 2, read-out: REVERBα agonism (EC50 class, FRET assay)
[2] = FITC-SMRT peptide, read-out: REVERBα agonism (EC50 class, FRET assay)

T1 sequence (P20393 with tags, fused parts or gaps DEL324-422): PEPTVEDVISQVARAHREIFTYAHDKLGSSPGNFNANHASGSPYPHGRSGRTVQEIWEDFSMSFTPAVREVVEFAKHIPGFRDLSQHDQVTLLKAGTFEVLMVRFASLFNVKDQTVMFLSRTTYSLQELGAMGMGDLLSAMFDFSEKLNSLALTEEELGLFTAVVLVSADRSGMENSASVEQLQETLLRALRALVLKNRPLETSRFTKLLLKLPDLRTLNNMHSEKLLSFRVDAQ
T1 sequence (Q9Y618 2335-2356 partner limits assumed): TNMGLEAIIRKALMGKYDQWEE

Row | Structure (SMILES) | EC50 [1] [nM] | EC50 [2] [nM]
1 | CC(C)CC(=O)n1cc(CCNS(=O)(=O)N(C)C)c2ccc(-c3ccncc3)cc21 [Compound 155, 1-(3-{2-[(dimethylsulfamoyl)amino]ethyl}-6-(pyridin-4-yl)-1H-indol-1-yl)-3-methylbutan-1-one] | 500 to 3000 | –
2 | CCn1cc(CCNS(=O)(=O)N(C)C)c2ccc(Br)cc21 [Compound 157, {[2-(6-bromo-1-ethyl-1H-indol-3-yl)ethyl]sulfamoyl}dimethylamine] | 500 to 3000 | –
3 | CC(C)Cn1cc(CCS(=O)(=O)C(C)C)c2ccc(-c3ccncc3)cc21 [Compound 248] | < 500 | –
4 | CC(C)Cn1cc(-c2ccc(CNS(=O)(=O)C(C)C)cc2)c2ccc(-c3ccccc3)cc21 [Example 87, N-(4-(1-isobutyl-6-phenyl-1H-indol-3-yl)benzyl)propane-2-sulfonamide] | 500 to 3000 | –
5 | CC(C)(C)C(=O)n1cc([C@H](NS(=O)(=O)C2CC2)C(F)(F)F)c2ccc(-c3ccccc3C(F)(F)F)cc21 [Example 480, (S)—N-(2,2,2-trifluoro-1-(1-pivaloyl-6-(2-(trifluoromethyl)phenyl)-1H-indol-3-yl)ethyl)cyclopropanesulfonamide] | – | 500 to 3000
6 | CC(C)(C)Cc1cn(CCNS(=O)(=O)C2CC2)c2ccc(-c3cccc4ccncc34)cc12 [Example 217, N-(2-(5-(isoquinolin-8-yl)-3-neopentyl-1H-indol-1-yl)ethyl)cyclopropane-sulfonamide] | 500 to 3000 | –
7 | Cc1c(CCNS(=O)(=O)N(C)C)c2ccc(-c3ccncc3)cc2n1CC(C)C [Example 41, dimethyl({2-[2-methyl-1-(2-methylpropyl)-6-(pyridin-4-yl)-1H-indol-3-yl]ethyl}sulfamoyl)amine] | > 3000 | –
8 | O=S(=O)(N[C@@H](c1cn(CC2(C(F)(F)F)CC2)c2cc(-c3ccccc3C(F)(F)F)ccc12)C(F)(F)F)C1CCC1 [Example 523, (S)—N-(2,2,2-trifluoro-1-(1-((1-(trifluoromethyl)cyclopropyl)methyl)-6-(2-(trifluoromethyl)phenyl)-1H-indol-3-yl)ethyl)cyclobutanesulfonamide] | – | < 500
9 | CC(C)(C)Cn1cc([C@H](NS(=O)(=O)C2CC2)C(F)F)c2ccc(-c3ccccc3C(F)(F)F)cc21 [Example 541, (S)—N-(2,2-difluoro-1-(1-neopentyl-6-(2-(trifluoromethyl)phenyl)-1H-indol-3-yl)ethyl)cyclopropanesulfonamide] | – | < 500
10 | CC(C)(C)Cn1cc(CCNS(=O)(=O)C2CC2)c2ccc(-c3cc(C(F)(F)F)ccc3C(F)(F)F)cc21 [Example 483, N-(2-(6-(2,5-bis(trifluoromethyl)phenyl)-1-neopentyl-1H-indol-3-yl)ethyl)cyclopropanesulfonamide] | – | < 500
11 | COc1ccc2c(CCN(C)S(=O)(=O)N(C)C)cn(CC(C)C)c2c1 [Example 117, N-{2-[6-methoxyl-1-(2-methylpropyl)-1H-indol-3-yl]ethyl}-N-methyl-N,N-dimethyl sulfuric diamide] | > 3000 | –
12 | CC(C)(C)Cc1cn(CCNS(=O)(=O)C2CC2)c2ccc(-c3ccc(C(F)(F)F)cc3C#N)cc12 [Example 487, N-(2-(5-(2-cyano-4-(trifluoromethyl)phenyl)-3-neopentyl-1H-indol-1-yl)ethyl)cyclopropanesulfonamide] | – | 500 to 3000
13 | CC(C)Cn1cc(CCNS(=O)(=O)N(C)C)c2ccc(-c3ccccc3F)cc21 [Example 56, N-{2-[6-(2-fluorophenyl)-1-(2-methylpropyl)-1H-indol-3-yl]ethyl}-N,N-dimethylsulfuric diamide] | 500 to 3000 | –
14 | CC(C)Cn1cc(CCNS(=O)(=O)N(C)C)c2ccc(-c3ccccc3OCc3ccccc3)cc21 [Example 77, N-{2-[6-(2-benzyloxylphenyl)-1-(2-methylpropyl)-1H-indol-3-yl]ethyl}-N,N-dimethyl-sulfuric diamide] | 500 to 3000 | –
15 | CC(C)(C)Cn1cc(CCNS(=O)(=O)C2CC2)c2ccc(-c3ccc(C(F)(F)F)cc3C(F)(F)F)cc21 [Example 481, N-(2-(6-(2,4-bis(trifluoromethyl)phenyl)-1-neopentyl-1H-indol-3-yl)ethyl)cyclopropanesulfonamide] | – | 500 to 3000
